Reference: BindingDB's records for doi:10.1021/jm950507y (Glaxo Wellcome Research Institute, 1996)

Assay: Average concentration of compound to cause 50% inhibition of topoisomerase-1 isolated from calf thymus

For `CC[C@@]1(O)C(=O)OCc2c1cc1n(c2=O)Cc2c-1nc1cc3c(cc1c2C[n+]1ccncc1)OCCO3` [8-ethyl-8-hydroxy-15-pyrazin-1-ium-1-ylmethyl-(8S)-2,3,8,9,12,14-hexahydro-11H-[1,4]dioxino[3,2-g]pyrano[3',4':6,7]indolizino[1,2-b]quinoline-9,12-dione], the IC50 was 180 nM.

Work on `CC[C@@]1(O)C(=O)OCc2c1cc1n(c2=O)Cc2c-1nc1cc3c(cc1c2C[n+]1ccccc1)OCCO3` [8-ethyl-8-hydroxy-15-(1-pyridiniumylmethyl)-(8S)-2,3,8,9,12,14-hexahydro-11H-[1,4]dioxino[3,2-g]pyrano[3',4':6,7]indolizino[1,2-b]quinoline-9,12-dione] yielded an IC50 of 190 nM.
